Test results as given in PubChem BioAssay (NCI).
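Five compound concentrations were applied to cells in 96-well plates for 48 hours; endpoints were derived by simple linear interpolation of the resulting dose-response curve. TGI: total growth inhibition.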

Experiments:
Test in all cases: NCI anticancer screen, dose series, 48 h
[1] = tested on: ACHN renal
[2] = tested on: HCT-116 colon
[3] = tested on: LOX IMVI melanoma
[4] = tested on: M14 melanoma
[5] = tested on: NCI-H522 lung
[6] = tested on: OVCAR-8 ovarian
[7] = tested on: RPMI-8226 leukemia
[8] = tested on: SF-295 CNS
[9] = tested on: SN12C renal
[10] = tested on: SW-620 colon
[11] = tested on: UACC-257 melanoma

| Compound | TGI [1] [µM] | TGI [2] [µM] | TGI [3] [µM] | TGI [4] [µM] | TGI [5] [µM] | TGI [6] [µM] | TGI [7] [µM] | TGI [8] [µM] | TGI [9] [µM] | TGI [10] [µM] | TGI [11] [µM] |
| --- | --- | --- | --- | --- | --- | --- | --- | --- | --- | --- | --- |
| O=C(O)CC(O)(C(=O)O)C(O)C(=O)O (centres undefined) | > 1000 | > 1000 | > 1000 | > 1000 | > 1000 | > 1000 | > 1000 | > 1000 | > 1000 | > 1000 | > 1000 |
| OC1c2ccccc2C(O)C2OC12 (centres undefined) | > 100 | > 100 | > 100 | > 100 | > 100 | > 100 | > 100 | > 100 | > 100 | > 100 | > 100 |
| C=CC1(c2ccc(OC)cc2)OCCCO1 | > 100 | > 100 | > 100 | > 100 | > 100 | > 100 | > 100 | > 100 | > 100 | > 100 | > 100 |
| O=C1c2cc([N+](=O)[O-])sc2C(=O)c2ccsc21 | 0.768 | 0.816 | 0.225 | 0.663 | 0.379 | 2.01 | 0.751 | 0.993 | 1.33 | 0.779 | 0.641 |
| COc1ccc2c(c1)-c1[nH]c3ccccc3c1CC2 | 32.3 | 31.8 | 36.3 | 31.5 | 20.3 | 25.1 | 71.2 | 27.3 | 29.9 | 31.6 | 30.8 |
| NC(N)=NCC(N)C(=O)O (centres undefined) | > 100 | > 100 | > 100 | > 100 | > 100 | > 100 | > 100 | > 100 | > 100 | > 100 | > 100 |
| CN(C)CCn1nc(N)c2nc3cc(C(F)(F)F)ccc3nc21 | > 100 | > 100 | > 100 | > 100 | > 100 | > 100 | > 100 | > 100 | > 100 | > 100 | > 100 |
| Cc1ccc2c(=O)c(-c3n[nH]c(=S)s3)c[nH]c2n1 | > 100 | > 100 | > 100 | > 100 | > 100 | > 100 | > 100 | > 100 | > 100 | > 100 | > 100 |
| O=C1N[C@@H](COc2ccc(C=Nc3ccc(CCc4ccc(N=Cc5ccc(OC[C@@H]6COC(=O)N6)cc5)cc4)cc3)cc2)CO1 | > 100 | > 100 | > 100 | > 100 | > 100 | > 100 | > 100 | > 100 | > 100 | > 100 | > 100 |
| C=C1c2nc3ccccc3n2C=C(c2ccc(OC)cc2)N1c1ccc(OCCN2CCOCC2)cc1 | > 100 | > 100 | > 100 | > 55.4 | 3.63 | > 100 | 9.05 | > 100 | > 100 | > 100 | 17.6 |
| CC(=O)n1ccc2c(Cl)ncnc21 | > 100 | > 100 | > 100 | > 100 | > 54.4 | > 100 | > 100 | > 100 | > 100 | > 100 | > 100 |
| CCOP(=O)(OCC)C(Nc1ccc(F)cc1)c1ccccc1 (centres undefined) | > 100 | > 100 | > 100 | > 100 | > 100 | > 100 | > 100 | > 100 | > 100 | > 100 | > 100 |
| O=C1C[C@H](c2ccc(O)c(O)c2)Oc2cc(O)cc(O)c21 | > 100 | > 100 | > 100 | > 100 | > 100 | > 100 | > 100 | > 100 | > 100 | > 100 | > 100 |
| COc1cccc(-c2cc(=O)c3cc(Cl)cnc3[nH]2)c1 | 55.4 | 10.6 | > 100 | > 9.71 | 3.51 | 43.9 | > 62.1 | 13 | > 100 | > 100 | > 100 |
| C=CCC(CNC(=O)OCc1ccccc1)OC(=O)OCc1ccccc1 (centres undefined) | > 100 | > 100 | > 100 | > 100 | > 100 | > 100 | 68.1 | > 100 | > 100 | > 100 | > 100 |
| Cc1nc2c(=O)[nH]c3ccc(Cl)cc3c2o1 | > 100 | > 100 | > 100 | > 100 | > 100 | > 100 | > 100 | > 100 | > 100 | > 100 | > 100 |
| CC1(C)CC[C@]2(C(=O)O)[C@H](O)C[C@]3(C)C(=CC[C@@H]4[C@@]5(C)CC[C@H](OC6OC(C(=O)O)C(O)C(O)C6O)C(C)(C)[C@@H]5CC[C@]43C)[C@@H]2C1 (some centres undefined) | > 100 | > 100 | > 100 | > 100 | > 100 | > 100 | > 100 | > 100 | 94.9 | > 100 | > 100 |

| Compound | TGI [1] [µM] | TGI [2] [µM] | TGI [3] [µM] | TGI [4] [µM] | TGI [5] [µM] | TGI [6] [µM] | TGI [7] [µM] | TGI [8] [µM] | TGI [9] [µM] | TGI [10] [µM] | TGI [11] [µM] |
| --- | --- | --- | --- | --- | --- | --- | --- | --- | --- | --- | --- |
| OCC(O)C(O)C(O)C(O)/C=N/Nc1nc(O)c(/C=C2\C=Nc3ccccc32)[nH]1 (centres undefined) | > 100 | > 100 | > 100 | > 100 | > 100 | > 100 | > 100 | > 100 | > 100 | > 100 | > 100 |
| CC1CN=C(c2ccc(COc3ccc(C4=NCC(C)N4)cc3)cc2)N1 (centres undefined) | > 100 | > 100 | > 100 | > 100 | > 100 | > 100 | > 100 | > 100 | > 100 | > 100 | 68.3 |
| COC(=O)[C@H](CCSC)NC(=O)c1ccc(CNC(=O)/C(C)=C/c2ccccc2)cc1 | > 100 | > 100 | > 100 | 83.7 | 32.5 | 51.4 | > 100 | > 100 | > 100 | > 100 | 52.7 |
| CCCC1(N)CC(OC)OC(C)C1O (centres undefined) | > 100 | > 100 | > 100 | > 100 | > 100 | > 100 | > 100 | > 100 | > 100 | > 100 | > 100 |
| COc1ccc(C[C@@H]2OC3(C=CC(=O)C=C3)O[C@H]2Cc2ccc(OC)cc2)cc1 | 1.16 | 0.33 | 0.377 | 2.53 | 0.33 | 0.645 | 0.653 | 7.89 | 3.16 | 0.383 | 3.28 |
| COc1cc(C=O)cc(C=Nc2ccc(S(N)(=O)=O)cc2)c1O | 35.2 | 94.7 | 42.7 | 14.6 | 44.5 | > 100 | 33.3 | 23.2 | 35.5 | > 100 | 38.5 |
| CC(C)c1cccc(C(C)C)c1OS(=O)(=O)NC(=O)OC(C(F)(F)F)C(F)(F)F | > 100 | > 100 | > 100 | 64 | > 100 | > 100 | 44.8 | 65.3 | > 100 | > 100 | > 100 |
| CC(/C=N/NC1=NCCCN1)=N\NC1=NCCCN1 | > 100 | > 100 | > 100 | > 100 | > 100 | > 100 | > 100 | > 100 | > 100 | > 100 | > 100 |
| C=CC(Br)(CBr)CCC(Br)C(C)C (centres undefined) | 20.6 | 14.3 | 3.1 | 15.3 | 3.46 | 8.58 | 4 | 8.44 | 27.2 | 5.38 | 24 |
| COc1ccccc1NS(=O)(=O)c1ccc2ncn(NS(=O)(=O)c3ccc(Cl)cc3)c(=O)c2c1 | > 100 | > 100 | > 100 | > 100 | > 100 | > 100 | > 100 | > 100 | > 100 | > 100 | > 100 |
| CN1C(=O)N(C)C2(CCN(CCCCCCF)CC2)C1=O | > 100 | > 100 | > 100 | > 100 | > 100 | > 100 | > 100 | > 100 | > 100 | > 100 | > 100 |
| Brc1cccc[n+]1-c1ccc2cc(-[n+]3ccccc3Br)ccc2c1 | 37.2 | > 100 | 34.7 | > 100 | > 100 | > 100 | 63.8 | > 100 | > 100 | > 100 | > 100 |
| COc1ccccc1NCC(=O)Nn1c(C)nc2ccc(S(=O)(=O)Nc3ccccc3OC)cc2c1=O | > 100 | > 100 | > 100 | > 100 | > 100 | > 100 | > 100 | > 100 | > 100 | > 100 | > 100 |
| CCCCCCCCCCCCCCCCP(=O)([O-])OCC[N+](C)(C)C | 31.9 | 28 | 29 | 28.9 | 42.6 | 32.7 | 34.2 | 25.8 | 26.2 | 29.7 | 32.7 |
| CCCCNC(=S)Nc1nc(C(=O)NNC(=O)c2ccccc2)cs1 | 37.3 | 27.1 | 21.7 | 28.6 | 43.7 | 66.9 | > 100 | 33.9 | 38 | 30.2 | 37 |
| COc1ccc(C2C(Cl)C(=O)N2NC(=O)Cc2ccccc2)cc1OC (centres undefined) | > 100 | > 100 | > 100 | > 100 | > 100 | > 100 | > 100 | > 100 | > 100 | > 100 | > 100 |
| CC(=O)N(CN1C(=O)CCC1C(=O)O)c1ccccc1Cl (centres undefined) | > 100 | > 100 | > 100 | > 100 | > 100 | > 100 | > 100 | > 100 | > 100 | > 100 | > 100 |
